Assay results from ChEMBL document CHEMBL4350957, “Use of the 4-Hydroxytriazole Moiety as a Bioisosteric Tool in the Development of Ionotropic Glutamate Receptor Ligands” (J Med Chem, 2019).
Active and inactive are the calls of the source. The calls are words filed in the database; no cut-off is given here.

Key:
[1] = molecular target: T1, Glutamate receptor 4 (Homo sapiens, UniProt P48058)
[2] = molecular target: Glutamate receptor 2 (Rattus norvegicus, UniProt P19491); experiment: biochemical
[3] = molecular target: Glutamate receptor 4 (Rattus norvegicus, UniProt P19493); experiment: biochemical
[4] = molecular target: T2, Glutamate receptor 3 (Homo sapiens, UniProt P42263); experiment: Agonist activity at GluA3 receptor (unknown origin) expressed in HEK293 cells assessed induction of S-glutamate-induced calcium flux at 300 uM measured after 90 secs in presence of cyclothiazide by Fluo4-AM dye-based fluorescence assay relative to S-glutamate; type: cell-based
[5] = molecular target: Glutamate NMDA receptor
[6] = molecular target: Glutamate receptor ionotropic, AMPA (Rattus norvegicus, UniProt P19490+P19491+P19492+P19493)
[7] = molecular target: T3, Glutamate NMDA receptor; Grin1/Grin2b (Rattus norvegicus) (UniProt P35439+Q00960); experiment: Agonist activity at recombinant rat GluN1a/GluN2B expressed in Xenopus laevis oocytes at 100 uM at -40 mV holding potential by two-electrode voltage clamp electrophysiology method; type: cell-based
[8] = molecular target: T3, Glutamate NMDA receptor; Grin1/Grin2b (Rattus norvegicus); experiment: Agonist activity at recombinant rat GluN1a/GluN2B expressed in Xenopus laevis oocytes at 300 uM at -40 mV holding potential in presence of glutamate by two-electrode voltage clamp electrophysiology method relative to control; type: cell-based
[9] = molecular target: T4, Ionotropic glutamate receptor NMDA 1/2D (Rattus norvegicus, UniProt P35439+Q62645)
[10] = molecular target: T5, Glutamate NMDA receptor; Grin1/Grin2c (Rattus norvegicus) (UniProt P35439+Q00961); experiment: Agonist activity at recombinant rat GluN1a/GluN2C expressed in Xenopus laevis oocytes at 100 uM at -40 mV holding potential by two-electrode voltage clamp electrophysiology method; type: cell-based
[11] = molecular target: T4, Ionotropic glutamate receptor NMDA 1/2D; remark: listed apart in the source
[12] = molecular target: T6, Ionotropic glutamate receptor NMDA 1/2D (Rattus norvegicus) (UniProt P35439+Q62645); experiment: Agonist activity at recombinant rat GluN1a/GluN2D expressed in Xenopus laevis oocytes at 100 uM at -40 mV holding potential by two-electrode voltage clamp electrophysiology method; type: cell-based
[13] = molecular target: T7, Glutamate NMDA receptor; Grin1/Grin2a (Rattus norvegicus) (UniProt P35439+Q00959); experiment: Agonist activity at recombinant rat GluN1a/GluN2A expressed in Xenopus laevis oocytes at 100 uM at -40 mV holding potential by two-electrode voltage clamp electrophysiology method; type: cell-based
[14] = molecular target: T5, Glutamate NMDA receptor; Grin1/Grin2c (Rattus norvegicus); experiment: Agonist activity at recombinant rat GluN1a/GluN2C expressed in Xenopus laevis oocytes at -40 mV holding potential in presence of glutamate by two-electrode voltage clamp electrophysiology method relative to control; type: cell-based
[15] = molecular target: T6, Ionotropic glutamate receptor NMDA 1/2D (Rattus norvegicus); experiment: Agonist activity at recombinant rat GluN1a/GluN2D expressed in Xenopus laevis oocytes at -40 mV holding potential in presence of glutamate by two-electrode voltage clamp electrophysiology method relative to control; type: cell-based
[16] = molecular target: T7, Glutamate NMDA receptor; Grin1/Grin2a (Rattus norvegicus); experiment: Agonist activity at recombinant rat GluN1a/GluN2A expressed in Xenopus laevis oocytes at 300 uM at -40 mV holding potential in presence of glutamate by two-electrode voltage clamp electrophysiology method relative to control; type: cell-based
[17] = molecular target: T6, Ionotropic glutamate receptor NMDA 1/2D (Rattus norvegicus); experiment: Agonist activity at recombinant rat GluN1a/GluN2D expressed in Xenopus laevis oocytes at -40 mV holding potential in presence of glycine by two-electrode voltage clamp electrophysiology method relative to glycine; type: cell-based
[18] = molecular target: T7, Glutamate NMDA receptor; Grin1/Grin2a (Rattus norvegicus); experiment: Agonist activity at recombinant rat GluN1a/GluN2A expressed in Xenopus laevis oocytes at 300 uM at -40 mV holding potential in presence of glycine by two-electrode voltage clamp electrophysiology method relative to glycine; type: cell-based
[19] = molecular target: T8, Glutamate receptor 1 (Homo sapiens, UniProt P42261); experiment: Agonist activity at GluA1 receptor (unknown origin) expressed in HEK293 cells assessed induction of S-glutamate-induced calcium flux at 300 uM measured after 90 secs in presence of cyclothiazide by Fluo4-AM dye-based fluorescence assay relative to S-glutamate; type: cell-based
[20] = molecular target: Glutamate receptor 3 (Rattus norvegicus, UniProt P19492); experiment: biochemical
[21] = molecular target: Glutamate receptor 1 (Rattus norvegicus, UniProt P19490); experiment: biochemical
[22] = molecular target: T8, Glutamate receptor 1
[23] = molecular target: T1, Glutamate receptor 4; experiment: Agonist activity at GluA4 receptor (unknown origin) expressed in HEK293 cells assessed induction of S-glutamate-induced calcium flux at 1000 uM measured after 90 secs in presence of cyclothiazide by Fluo4-AM dye-based fluorescence assay relative to S-glutamate; type: cell-based
[24] = molecular target: Glutamate receptor 2 (Homo sapiens, UniProt P42262)
[25] = molecular target: T2, Glutamate receptor 3

T2 sequence (P42263 whole entry): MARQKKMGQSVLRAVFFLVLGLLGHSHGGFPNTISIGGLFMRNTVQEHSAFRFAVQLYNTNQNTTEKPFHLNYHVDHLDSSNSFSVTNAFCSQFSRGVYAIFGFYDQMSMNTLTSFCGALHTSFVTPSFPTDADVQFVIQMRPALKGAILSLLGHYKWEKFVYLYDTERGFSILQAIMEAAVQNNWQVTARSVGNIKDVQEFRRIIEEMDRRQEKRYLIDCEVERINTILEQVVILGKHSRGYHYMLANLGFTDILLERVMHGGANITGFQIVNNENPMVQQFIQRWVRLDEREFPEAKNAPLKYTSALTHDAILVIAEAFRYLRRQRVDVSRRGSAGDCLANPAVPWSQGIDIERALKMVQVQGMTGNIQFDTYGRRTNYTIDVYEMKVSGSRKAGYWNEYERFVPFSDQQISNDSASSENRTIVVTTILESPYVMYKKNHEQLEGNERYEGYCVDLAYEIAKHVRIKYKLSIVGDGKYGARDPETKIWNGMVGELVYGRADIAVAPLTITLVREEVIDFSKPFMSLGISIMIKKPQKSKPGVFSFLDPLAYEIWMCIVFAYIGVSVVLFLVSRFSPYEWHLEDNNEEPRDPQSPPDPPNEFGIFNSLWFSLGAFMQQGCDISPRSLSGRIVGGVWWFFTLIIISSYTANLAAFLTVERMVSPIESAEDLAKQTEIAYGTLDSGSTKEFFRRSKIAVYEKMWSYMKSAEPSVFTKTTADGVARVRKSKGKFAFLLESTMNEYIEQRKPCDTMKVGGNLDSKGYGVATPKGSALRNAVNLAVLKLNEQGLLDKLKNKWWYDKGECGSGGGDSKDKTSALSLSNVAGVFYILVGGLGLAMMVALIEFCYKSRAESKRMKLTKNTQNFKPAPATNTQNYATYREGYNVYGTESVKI
T1 sequence (P48058 whole entry): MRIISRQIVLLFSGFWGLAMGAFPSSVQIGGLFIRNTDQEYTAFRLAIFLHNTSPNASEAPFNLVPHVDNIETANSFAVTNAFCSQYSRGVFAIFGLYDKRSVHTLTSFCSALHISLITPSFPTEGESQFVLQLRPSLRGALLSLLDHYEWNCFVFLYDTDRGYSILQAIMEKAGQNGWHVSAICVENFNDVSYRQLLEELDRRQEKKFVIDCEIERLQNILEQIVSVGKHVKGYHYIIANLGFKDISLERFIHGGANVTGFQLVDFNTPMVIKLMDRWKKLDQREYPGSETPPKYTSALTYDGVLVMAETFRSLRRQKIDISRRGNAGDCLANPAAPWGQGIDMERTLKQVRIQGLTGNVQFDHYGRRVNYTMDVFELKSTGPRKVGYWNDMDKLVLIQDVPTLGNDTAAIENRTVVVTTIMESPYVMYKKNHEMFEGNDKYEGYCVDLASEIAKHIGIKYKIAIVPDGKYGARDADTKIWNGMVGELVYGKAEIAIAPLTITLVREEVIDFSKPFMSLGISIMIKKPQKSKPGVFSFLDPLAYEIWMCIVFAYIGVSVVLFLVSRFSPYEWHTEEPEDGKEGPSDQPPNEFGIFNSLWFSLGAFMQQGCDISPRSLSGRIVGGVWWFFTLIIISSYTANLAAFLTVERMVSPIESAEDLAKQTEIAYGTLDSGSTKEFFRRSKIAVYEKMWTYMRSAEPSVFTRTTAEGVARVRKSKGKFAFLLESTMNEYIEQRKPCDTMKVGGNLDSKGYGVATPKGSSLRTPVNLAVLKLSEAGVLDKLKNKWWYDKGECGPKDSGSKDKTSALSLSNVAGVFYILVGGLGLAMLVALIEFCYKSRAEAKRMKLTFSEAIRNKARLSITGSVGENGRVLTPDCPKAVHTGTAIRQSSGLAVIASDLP
Sequence of Glutamate receptor 2 (Rattus norvegicus, UniProt P19491) (P19491 whole entry): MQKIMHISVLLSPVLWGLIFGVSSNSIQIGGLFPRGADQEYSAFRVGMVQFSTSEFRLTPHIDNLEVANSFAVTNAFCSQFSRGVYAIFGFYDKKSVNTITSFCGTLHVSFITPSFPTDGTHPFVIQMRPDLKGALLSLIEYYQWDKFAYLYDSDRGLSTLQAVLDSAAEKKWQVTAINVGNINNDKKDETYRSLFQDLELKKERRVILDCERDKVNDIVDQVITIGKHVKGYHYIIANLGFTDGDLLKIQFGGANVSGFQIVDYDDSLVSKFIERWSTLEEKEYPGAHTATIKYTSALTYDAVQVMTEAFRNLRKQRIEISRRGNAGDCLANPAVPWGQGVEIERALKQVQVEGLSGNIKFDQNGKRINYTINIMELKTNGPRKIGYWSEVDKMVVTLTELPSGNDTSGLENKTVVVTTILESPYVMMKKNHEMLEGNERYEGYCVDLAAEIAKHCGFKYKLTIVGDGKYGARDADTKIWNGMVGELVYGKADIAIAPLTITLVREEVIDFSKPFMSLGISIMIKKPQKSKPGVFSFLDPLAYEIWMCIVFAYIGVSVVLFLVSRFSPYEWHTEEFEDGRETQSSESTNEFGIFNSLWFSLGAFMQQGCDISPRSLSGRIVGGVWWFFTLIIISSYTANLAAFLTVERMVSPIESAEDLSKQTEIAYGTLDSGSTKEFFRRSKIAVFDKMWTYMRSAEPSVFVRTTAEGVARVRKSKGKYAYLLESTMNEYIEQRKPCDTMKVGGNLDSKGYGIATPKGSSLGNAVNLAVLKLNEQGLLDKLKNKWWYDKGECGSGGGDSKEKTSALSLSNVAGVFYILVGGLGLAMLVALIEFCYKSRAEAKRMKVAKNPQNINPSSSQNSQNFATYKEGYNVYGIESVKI
Sequence of Glutamate receptor 4 (Rattus norvegicus, UniProt P19493) (P19493 whole entry): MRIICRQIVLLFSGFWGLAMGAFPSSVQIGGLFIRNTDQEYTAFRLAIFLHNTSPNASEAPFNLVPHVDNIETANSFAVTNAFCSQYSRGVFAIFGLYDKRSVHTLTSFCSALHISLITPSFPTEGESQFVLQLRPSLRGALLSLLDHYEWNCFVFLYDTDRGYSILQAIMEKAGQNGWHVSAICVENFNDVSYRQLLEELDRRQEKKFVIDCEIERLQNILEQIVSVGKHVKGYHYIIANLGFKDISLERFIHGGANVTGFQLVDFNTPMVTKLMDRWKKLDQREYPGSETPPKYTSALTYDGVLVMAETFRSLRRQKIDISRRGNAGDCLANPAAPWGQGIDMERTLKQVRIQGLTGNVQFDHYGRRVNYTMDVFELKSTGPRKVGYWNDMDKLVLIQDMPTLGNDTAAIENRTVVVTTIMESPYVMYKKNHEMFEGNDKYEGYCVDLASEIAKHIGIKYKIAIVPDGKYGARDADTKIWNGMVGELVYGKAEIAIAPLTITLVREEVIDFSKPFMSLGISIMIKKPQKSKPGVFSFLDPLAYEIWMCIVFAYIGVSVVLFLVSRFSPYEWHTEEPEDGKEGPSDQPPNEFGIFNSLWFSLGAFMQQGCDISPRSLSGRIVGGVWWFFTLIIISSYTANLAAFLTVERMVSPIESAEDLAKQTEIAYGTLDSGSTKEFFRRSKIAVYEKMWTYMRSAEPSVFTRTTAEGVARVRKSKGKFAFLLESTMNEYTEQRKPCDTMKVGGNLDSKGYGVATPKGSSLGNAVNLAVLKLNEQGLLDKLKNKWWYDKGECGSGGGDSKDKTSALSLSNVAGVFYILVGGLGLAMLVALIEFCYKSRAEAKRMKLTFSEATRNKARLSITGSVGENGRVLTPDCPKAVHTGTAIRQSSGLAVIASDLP
T8 sequence (P42261 whole entry): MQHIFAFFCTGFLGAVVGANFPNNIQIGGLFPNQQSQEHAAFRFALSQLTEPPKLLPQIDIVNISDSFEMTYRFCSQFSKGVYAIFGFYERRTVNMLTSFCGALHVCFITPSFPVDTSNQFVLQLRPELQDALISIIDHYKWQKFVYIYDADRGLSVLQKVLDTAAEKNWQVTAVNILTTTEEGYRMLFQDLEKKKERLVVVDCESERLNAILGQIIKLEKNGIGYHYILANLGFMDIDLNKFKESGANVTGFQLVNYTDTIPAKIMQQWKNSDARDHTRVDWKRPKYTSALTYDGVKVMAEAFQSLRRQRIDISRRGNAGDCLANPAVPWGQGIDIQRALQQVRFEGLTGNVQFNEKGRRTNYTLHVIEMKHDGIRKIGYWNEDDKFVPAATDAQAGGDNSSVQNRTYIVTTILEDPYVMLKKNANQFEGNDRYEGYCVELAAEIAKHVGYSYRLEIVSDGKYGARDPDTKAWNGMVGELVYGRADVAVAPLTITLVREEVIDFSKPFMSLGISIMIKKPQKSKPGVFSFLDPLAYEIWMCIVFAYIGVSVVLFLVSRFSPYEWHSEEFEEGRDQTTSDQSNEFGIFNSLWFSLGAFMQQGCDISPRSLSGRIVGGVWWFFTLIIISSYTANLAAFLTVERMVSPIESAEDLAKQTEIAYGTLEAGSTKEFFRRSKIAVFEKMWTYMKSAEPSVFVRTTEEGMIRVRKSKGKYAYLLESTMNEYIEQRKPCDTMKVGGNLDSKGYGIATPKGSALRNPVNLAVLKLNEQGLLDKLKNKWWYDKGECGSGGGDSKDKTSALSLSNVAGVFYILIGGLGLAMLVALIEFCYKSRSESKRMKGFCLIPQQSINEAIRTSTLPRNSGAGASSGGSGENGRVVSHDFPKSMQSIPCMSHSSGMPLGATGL
Sequence of Glutamate receptor 2 (Homo sapiens, UniProt P42262) (P42262 whole entry): as the sequence (P19491 whole entry) above, with T191M, A291T, G764R, P852A counted along it

SMILES	EC50 [1] [µM]	Ki [2] [nM]	Ki [3] [µM]	Ki [5] [µM]	IC50 [6] [µM]	Ki [20] [µM]	further results
CCCn1nnc(O)c1CC(N)C(=O)O (racemic)	51	3250	100	> 100	–	–	%max [4]: > 5%
Cn1nc(O)c(C(N)C(=O)O)n1 (racemic)	–	–	–	–	> 100	–	Activity [7]: Active; Imax [8]: 52%; EC50 [9]: 35 µM; Activity [10]: Active; EC50 [11]: 58 µM; Activity [12]: Active; Activity [13]: inactive; Imax [14]: 107%; Imax [15]: 98%; Imax [16]: 38%; Imax [17]: 58%; Imax [18]: inactive
Cn1nnc(O)c1CC(N)C(=O)O (racemic)	56.2	1870	–	–	–	–	%max [19]: > 5%; %max [4]: > 5%
Cn1nnc(-c2onc(O)c2CC(N)C(=O)O)n1 (centres undefined)	–	3.9	0.0027	–	–	0.0022	–
CCCn1nc(O)c(CC(N)C(=O)O)n1 (racemic)	–	> 100000	> 100	> 100	> 100	> 100	Ki [21]: > 100 µM; EC50 [22]: > 1 mM; %max [23]: > 5%
CCn1nc(O)c(CC(N)C(=O)O)n1 (racemic)	> 1000	> 100000	> 100	> 100	> 100	100	Ki [21]: > 100 µM; EC50 [22]: > 1 mM; EC50 [24]: > 1 mM; EC50 [25]: > 1 mM
CN[C@H](CC(=O)O)C(=O)O [N-METHYL-D-ASPARTIC ACID (NMDA)]	–	–	–	–	> 100	–	–
